According to article PMC11768591 (Pharmaceutics, 2024):
≈ marks a conversion by molar mass, not a printed value.

How the values were obtained:
[1] = tested on: CFA-induced thermal hyperalgesia; test: CFA-induced thermal hyperalgesia, paw withdrawal latency; format: in vivo, Male Wistar rats; conditions: rat, single oral dose 100 mg/kg
Description: (§1) CFA was administered at a concentration of 1 mg/mL and was previously dissolved in a mixture of paraffin oil (85%) and mannard monooleate (15%), whereas carrageenan was dissolved in an isotonic saline solution at 1%. The drugs were prepared fresh at the desired dose before administration.
(§2) The antihyperalgesic effect of the co-amorphous compound was evaluated using the thermal hyperalgesia model described by Dirig et al., with slight modifications. In this model, the rats were placed in acrylic observation chambers on a thin transparent glass plate maintained at a constant temperature of 30 °C. After a 30 min acclimatization period in the chambers, the animals received an intra-articular injection of 100 µL of CFA (1 mg/mL) or an intra-plantar injection of 50 µL of 1% carrageenan. Paw withdrawal latency to the thermal stimulus was measured before and 1, 2, 3, 4, 5 and 6 h after injection of CFA or carrageenan. To avoid tissue damage, a cutoff time of 20 s was used.
(§3) In the preclinic studies, data were expressed as the average ± S.E.M. of 6 animals per experimental group. […] From the time courses, the area under the curve (AUC) was calculated using the trapezoidal rule as a measure of the duration and intensity of the effects observed with the different treatments. […]

[2] = tested on: inflammation induced by carrageenan; test: Carrageenan-induced inflammation, paw volume by plethysmometer; format: in vivo, Male Wistar rats; conditions: rat
Description: (§4) The drugs were prepared fresh at the desired dose before administration. […] In the CFA-induced inflammation model, the rats were briefly anesthetized with isoflurane, via nose cone, titrated to the lowest dose necessary to achieve non-response to distal tail pinch. […] In both models, the paw volume was measured by a digital plethysmometer 7150 (Ugo Basile, Varese, Italy). To measure volume, the injected paw was marked around 1 cm above the tibiotarsal joint with an indelible pen. The paw was immersed up to the mark every time. […] In the […] studies, data were expressed as the average ± S.E.M. of 6 animals per experimental group. For the inflammation and hyperalgesia experiments, time courses of volume change (ΔV in μL) versus time (h) or paw withdrawal latency time (s) versus time (h) were generated, respectively. From the time courses, the area under the curve (AUC) was calculated using the trapezoidal rule as a measure of the duration and intensity of the effects observed with the different treatments. Then, AUC was employed to construct dose-response curves and to compare the different treatments.

[3] = tested on: inflammation induced by Freund's complete adjuvant; test: CFA-induced inflammation, paw volume by plethysmometer; format: in vivo, Male Wistar rats; conditions: rat
Description: as §4

[4] = tested on: carrageenan-induced thermal hyperalgesia; test: Carrageenan-induced thermal hyperalgesia, paw withdrawal latency; format: in vivo, Male Wistar rats; conditions: rat, single oral dose 100 mg/kg
Description: as §1, §2, §3

[5] = phosphate buffer at pH 7.2; cited from earlier work
[6] = Solubility in phosphate buffer pH 6.8 at 37.5 °C (supersaturated, UV/Vis 420 nm); format: physicochemical
Description: (§5) Then, 200 µL aliquots were taken for 1, 5, 10, 30 and 60 min. […] The solubility tests were performed in triplicate.

[7] = Solubility in distilled water at 37.5 °C (supersaturated, UV/Vis 420 nm); format: physicochemical
Description: as §5

[8] = oral 100–320 mg/kg, 1 h before carrageenan
[9] = oral 100–320 mg/kg, 1 h before CFA
[10] = single oral dose 100 mg/kg (mixture: curcumin 51.4 mg/kg + L-arginine 48.6 mg/kg)

Row | SMILES | antihyperalgesic effect, CFA-induced thermal hyperalgesia (paw withdrawal latency) [1] | effect on carrageenan-induced inflammation (paw volume change, AUC) [2, 8] | effect on CFA-induced inflammation (paw volume change, AUC) [3, 9] | antihyperalgesic effect, carrageenan-induced thermal hyperalgesia (paw withdrawal latency) [4] | half-life in solution [5] | solubility at 60 min ([6]; pH 6.8, after 60 min) [µg/mL] | solubility at 1 min ([6]; pH 6.8, aqueous buffer, thermodynamic from solid, after 1 min) [µg/mL] | solubility in distilled water ([7]; after 60 min) [µg/mL] | solubility at 1 min ([7]; distilled water, water, thermodynamic from solid, after 1 min) [µg/mL] | effect on carrageenan-induced inflammation (paw volume change, AUC) [2, 10] | effect on CFA-induced inflammation (paw volume change, AUC) [3, 10]
1 | N=C(N)NCCC[C@H](N)C(=O)O [L-arginine] | not curcumin or L-arginine, significantly increased the latency time | failed to reverse the inflammatory effects | failed to reverse the inflammatory effects | antinociceptive effects that were statistically different from the vehicle group |  |  |  |  |  |  | 
2 | COc1cc(/C=C/C(=O)CC(=O)/C=C/c2ccc(O)c(OC)c2)ccc1O [curcumin] | not curcumin or L-arginine, significantly increased the latency time | failed to reverse the inflammatory effects | failed to reverse the inflammatory effects | antinociceptive effects that were statistically different from the vehicle group | around 10 min | 3.75 (≈ 10.2 µM) | 1.36 (≈ 3.69 µM) | 0.43 (≈ 1.17 µM) | 0.03 (≈ 0.0814 µM) |  | 
3 | O=C(O)Cc1ccccc1Nc1c(Cl)cccc1Cl [diclofenac] |  |  |  |  |  |  |  |  |  | have anti-inflammatory effects | have anti-inflammatory effects
